The values that follow come from patent US8178551B2 (Green Cross Corporation, priority 2007, dated 2012).

In general, Papp A→B refers to the apparent permeability from the apical to the basolateral side of a cell layer. A word on the Papp: it is the rate of passage across a membrane or cell layer, normalised by area and donor concentration.

Structures can show the parent of a compound that is named as a salt.

The nature of data set [1]: Drug transport assay with MDCK monolayers (apparent permeability, Papp). It counts as in vitro ADME. The following applies: dog, MDCK, apical to basolateral, 37° C. Here is the method:
(§1) Experiment 1. Permeability Measurement by Performing a Drug Transport Assay with MDCK Monolayers
(§2) (+)-3-HM was dissolved in DMSO at 10 mM and stored at 4° C. MDCK cells were obtained from the ATCC (American Type Culture Collection, CCL-34). MDCK cells were maintained in DMEM (Dulbecco's MEM with high glucose) containing 1×NEAA (Non-essential amino acids), 10 mM HEPES, 100 units penicillin, 0.1 mg/ml streptomycin and 8% FBS. The cells were cultivated in T-75 flasks in a cell culture incubator at 37° C. MDCK cells were passaged twice per week. When the cells were 90% confluence, the cells were plated at 1×10^5 cells/well in transwell. The cells were fed with fresh medium every other day. The Cells were grown to confluence on the transwell for 5 days. When the cells have reached confluence and are differentiated, they are ready to be used for transport studies. The TEER (Transepithelial electrical resistance) of each well was measured by Millicell-ERS system ohm meter. The electrode was immersed in 70% ethanol and PBS for 15 minutes. […] MDCK monolayers with TEER values >400Ω were used. After the each well was washed by using sterile HBSS (hank's buffered solution) and (+)-3-HM was diluted 100-fold in HBSS, the apical wells were filled with 200 ul of the test compounds. The basolateral wells were filled with 1 ml of HBSS buffer. Only 0.1% DMSO treated wells prepared to adjust for analysis. The cells were incubated at 37° C. for 1 hour. At the end of the transport period, the result samples were removed from the apical (150 ul) and basolateral (900 ul) wells. The representative compounds of Examples were conducted in same conditions.
(§3) Experiment 2. The HPLC Analysis and the Calculation of Papp
(§4) HPLC analyses were performed using a WATERS HPLC system. A ZORBAX Eclipse XDB-C18 (4.6×250 mm, 5 μm particle size) was used. The optimal operating conditions are as followed; Mobile phase A is composed of distilled water-acetonitrile (ACN) (9:1, v/v) with 0.1% trifluoroacetic acid (TFA), and mobile phase B is 90% acetonitrile with 0.1% TFA. All buffers were used after the 0.45 μm filtration.
(§5) The UV detection was performed at 280 nm or the fluorescence detection was performed at Excitation in 228 nm and Emission in 330 nm.
(§6) The concentration of A and B buffer was performed by the gradient method and the total analysis time was 38 min. The optimal operating conditions: elution gradient 0-10 min (10-50%), 10-20 min (50-90%), 20-25 min (90%), 25-27 min (90-10%), 27-38 min (10%). After the analysis of HPLC, the percentage of area of (+)-3-HM and the compound of Example 2 were calculated by remained concentration (μg/ml).
(§7) The apparent permeability coefficients (Papp), expressed in nm/sec, were calculated by the following equation: Permeability (Papp)=(Receiver Volume×Receiver Conc.)/(Filter surface area×Reaction Time×donor Conc.)×10^7.

In data set [2] the test system is MDCK monolayers. The data set is described as above. In kind it is in vitro ADME. The following applies: apical to basolateral, 37° C., 1 hour. Here is the method: as §1, §2, §3, §4, §5, §6, §7
Data set [3] concerns MPTP-induced Parkinson's disease animal model. The following applies: daily injections, literature; cited from earlier work.
For data set [4] the following is noted: known drugs; cited from earlier work.
In data set [5] the test system is MDCK monolayers. The following applies: MDCK Papp; cited from earlier work.

`CCC(C)OC(=O)OCOc1ccc2c(c1)[C@]13CCCC[C@@H]1[C@H](C2)NCC3` (single isomer, unassigned; (+)) [Example 25, (+)-sec-Butyl(morphinan-3-yloxy)methyl carbonate TFA]: in data set [1], the Papp A→B at 1 h, 100 µM amounted to 20.3 ×10⁻⁶ cm/s.
The same measure, in the same setting: the figure for `CC(C)OC(=O)OCOc1ccc2c(c1)[C@]13CCCC[C@@H]1[C@H](C2)NCC3` [Example 2, (+)-Isopropyl(morphinan-3-yloxy)methyl carbonate] is 26.2 ×10⁻⁶ cm/s; for `CCCOC(=O)OCOc1ccc2c(c1)[C@]13CCCC[C@@H]1[C@H](C2)NCC3` [Example 3, (+)-(Morphinan-3-yloxy)methyl propyl carbonate] it is 21.9 ×10⁻⁶ cm/s; for `O=C(OCOc1ccc2c(c1)[C@]13CCCC[C@@H]1[C@H](C2)NCC3)OCC1CC1` [Example 4, (+)-Cyclopropylmethyl(morphinan-3-yloxy)methyl carbonate] it is 15.3 ×10⁻⁶ cm/s.
Turning to `O=C(OCOc1ccc2c(c1)[C@]13CCCC[C@@H]1[C@H](C2)NCC3)OC1CCCC1` [Example 6, (+)-Cyclopentyl(morphinan-3-yloxy)methyl carbonate], the apical-to-basolateral permeability (Papp A→B) at 1 h, 100 µM in data set [1] is 20.6 ×10⁻⁶ cm/s.
On the same count and under the same terms, the figure for `O=C(OCOc1ccc2c(c1)[C@]13CCCC[C@@H]1[C@H](C2)NCC3)OC1CCCCC1` [Example 8, (+)-Cyclohexyl(morphinan-3-yloxy)methyl carbonate] is 19.7 ×10⁻⁶ cm/s; for `O=C(OCOc1ccc2c(c1)[C@]13CCCC[C@@H]1[C@H](C2)NCC3)OCC1CCCCC1` [Example 9, (+)-Cyclohexylmethyl(morphinan-3-yloxy)methyl carbonate] it is 48.7 ×10⁻⁶ cm/s.
On the same count and under the same terms, in the case of `O=C(OCOc1ccc2c(c1)[C@]13CCCC[C@@H]1[C@H](C2)NCC3)OCC1CCCC1` [Example 15, (+)-Cyclopentylmethyl(morphinan-3-yloxy)methyl carbonate TFA] it was 33.7 ×10⁻⁶ cm/s.
With `O=C(OCOc1ccc2c(c1)[C@]13CCCC[C@@H]1[C@H](C2)NCC3)OCC1CCC1` [Example 17, (+)-Cyclobutylmethyl(morphinan-3-yloxy)methyl carbonate TFA], the Papp A→B at 1 h, 100 µM in data set [1] is 22.7 ×10⁻⁶ cm/s.
The same measure, in the same setting: in the case of `CC(C)COC(=O)OCOc1ccc2c(c1)[C@]13CCCC[C@@H]1[C@H](C2)NCC3` [Example 23, (+)-Isobutyl(morphinan-3-yloxy)methyl carbonate TFA] it was 20.3 ×10⁻⁶ cm/s.
Same read-out and setting: the figure for `O=C(OCOc1ccc2c(c1)[C@]13CCCC[C@@H]1[C@H](C2)NCC3)OC1CCCCCC1` [Example 27, TFA] is 23.4 ×10⁻⁶ cm/s.
Still for that read-out and setting: in the case of `CC(Cc1ccccc1)OC(=O)OCOc1ccc2c(c1)[C@]13CCCC[C@@H]1[C@H](C2)NCC3` (stereo partly drawn) [Example 31, (+)-(Morphinan-3-yloxy)methyl 1-phenylpropan-2-yl carbonate TFA] it was 22.3 ×10⁻⁶ cm/s; in that of `O=C(OCOc1ccc2c(c1)[C@]13CCCC[C@@H]1[C@H](C2)NCC3)OC1CCC1` [Example 37, (+)-Cyclobutyl(morphinan-3-yloxy)methyl carbonate TFA], 13.6 ×10⁻⁶ cm/s.
Take `CCCC(C)OC(=O)OCOc1ccc2c(c1)[C@]13CCCC[C@@H]1[C@H](C2)NCC3` (stereo partly drawn) [Example 41, (+)-(Morphinan-3-yloxy)methyl pentan-2-yl carbonate TFA]: the Papp A→B at 1 h, 100 µM in data set [1] is 23.1 ×10⁻⁶ cm/s.
On the same count and under the same terms, in the case of `CC(C)C(=O)OCOc1ccc2c(c1)[C@]13CCCC[C@@H]1[C@H](C2)NCC3` [Example 44, (+)-(Morphinan-3-yloxy)methyl isobutyrate] it was 21.2 ×10⁻⁶ cm/s.
Turning to `CCC(CC)C(=O)OCOc1ccc2c(c1)[C@]13CCCC[C@@H]1[C@H](C2)NCC3` [Example 54, (+)-(Morphinan-3-yloxy)methyl 2-ethylbutanoate TFA], in data set [1], the Papp A→B at 1 h, 100 µM stood at 28.9 ×10⁻⁶ cm/s.
Same read-out and setting: the figure for `O=C(OCOc1ccc2c(c1)[C@]13CCCC[C@@H]1[C@H](C2)NCC3)C1CCCCC1` [Example 56, (+)-(Morphinan-3-yloxy)methyl cyclohexanoate TFA] is 9.43 ×10⁻⁶ cm/s; for `O=C(OCOc1ccc2c(c1)[C@]13CCCC[C@@H]1[C@H](C2)NCC3)C1CCCC1` [Example 58, (+)-(Morphinan-3-yloxy)methyl cyclopentanoate TFA] it is 6.05 ×10⁻⁶ cm/s; for `CCCCC(CC)C(=O)OCOc1ccc2c(c1)[C@]13CCCC[C@@H]1[C@H](C2)NCC3` (stereo partly drawn) [Example 60, (+)-(Morphinan-3-yloxy)methyl 2-ethylhexanoate TFA] it is 20.2 ×10⁻⁶ cm/s.
Same read-out and setting: in the case of `CCC(C)C(=O)OCOc1ccc2c(c1)[C@]13CCCC[C@@H]1[C@H](C2)NCC3` (stereo partly drawn) [Example 66, (+)-(Morphinan-3-yloxy)methyl 2-methylbutanoate TFA] it was 16.2 ×10⁻⁶ cm/s; in that of `O=C(OCOc1ccc2c(c1)[C@]13CCCC[C@@H]1[C@H](C2)NCC3)C1CC1` [Example 68, (+)-(Morphinan-3-yloxy)methyl cyclopropanecarboxylate TFA], 10.1 ×10⁻⁶ cm/s; in that of `CC(C)CC(=O)OCOc1ccc2c(c1)[C@]13CCCC[C@@H]1[C@H](C2)NCC3` [Example 70, (+)-(Morphinan-3-yloxy)methyl 3-methylbutanoate TFA], 16.6 ×10⁻⁶ cm/s.
With `CCC(C(=O)OCOc1ccc2c(c1)[C@]13CCCC[C@@H]1[C@H](C2)NCC3)c1ccccc1` (stereo partly drawn) [Example 72, (+)-(Morphinan-3-yloxy)methyl 2-phenylbutanoate TFA], in data set [1], the Papp A→B at 1 h, 100 µM came out at 13.1 ×10⁻⁶ cm/s.
For the compound `CC(C)OC(=O)OCOc1ccc2c(c1)[C@]13CCCC[C@@H]1[C@H](C2)NCC3` [Example 80, (+)-Isopropyl(morphinan-3-yloxy)methyl carbonate L-(+)-tartaric acid], in data set [2], the “Papp” value amounted to 18.57 ×10⁻⁶ cm/s.
Turning to `CC(C)(C)C(=O)OCOc1ccc2c(c1)[C@]13CCCC[C@@H]1[C@H](C2)NCC3` [Example 105, (+)-(Morphinan-3-yloxy)methyl pivalate salicylic acid], in data set [1], the Papp A→B at 1 h, 100 µM is 20.3 ×10⁻⁶ cm/s.
With `Oc1ccc2c(c1)[C@@]13CCCC[C@H]1[C@@H](C2)NCC3` [HM, (+)-3-hydroxymorphinan], the apparent permeability from apical to basolateral (Papp A→B) at 1 h, 100 µM in data set [1] stood at 3.33 ×10⁻⁶ cm/s. In addition, the “neuroprotective property in MPTP models (DA neurons in substantia nigra pars compacta, striatal DA levels)” value in data set [3] was “dopamine (DA) neurons in substantia nigra pars compacta have been protected and DA levels in striatum has been restored”.
Consider `CC(=O)Nc1ccc(O)cc1` [acetaminophen], for which, in data set [4], the human absorption was 94%. The “Permeability values for known drugs” value in data set [5] is 35 ×10⁻⁶ cm/s.
As to `C[C@@H]1C[C@H]2[C@@H]3CCC4=CC(=O)C=C[C@]4(C)[C@@]3(F)[C@@H](O)C[C@]2(C)[C@@]1(O)C(=O)CO` [dexamethasone], the human absorption in data set [4] is recorded as 98%.
`CC(C(=O)O)c1cccc(C(=O)c2ccccc2)c1` (stereo not shown) [ketoprofen]: the “Permeability values for known drugs” value in data set [5] is 20 ×10⁻⁶ cm/s.
